Test results from patent US9063142B1, “Method of predicting sensitivity to prostate cancer therapy” (University of Florida, priority 2004, dated 2015).

Experiments:
Assay type in all cases: cell-based, human
LNCaP cells [1] = test: PARP cleavage by Western blotting; conditions: 30 micro-M pifithrin-alpha 24 hr, then 25 micro-M roscovitine 16 hr, FIG. 5A
Procedure: (§2) Cells were rinsed with PBS and lysed in a buffer containing 50 mM Hepes, pH 7.5, 150 mM NaCl, 1 mM EDTA, 1 mM EGTA, 10% glycerol, 0.5% NP-40, 1 mM dithiothreitol, 0.1 mM phenylmethylsulfonyl fluoride, 2.5 micro-g/ml leupeptin, 0.5 mM NaF, and 0.1 mM Na3VO4. After a 30 min incubation, insoluble material was removed by centrifugation. Cell extracts normalized for amount protein were resolved by SDS-PAGE and transferred to nitrocellulose membranes. Blots were blocked in PBS containing 0.05% Tween and 5% instant milk and incubated with antibody in PBS containing 0.05% Tween for 2 hr at room temperature. Proteins recognized by the antibody were detected by enhanced chemiluminescence using a horseradish peroxidase-coupled secondary antibody as specified by the manufacturer (Pierce).

p53 = p53 abundance in LNCaP cells, Western blotting; conditions: 30 micro-M pifithrin-alpha 24 hr, then 25 micro-M roscovitine 16 hr, FIG. 5A
Procedure: as §2

PC3 cells = test: DNA fragmentation, Cell Death Detection ELISA; conditions: 20 hr, FIG. 5B
Procedure: (§1) DNA fragmentation was determined using a photometric enzyme-linked immunoassay (Cell Death Detection ELISA kit, Roche) as specified by the manufacturer. […] Cell lysates were incubated with biotin-conjugated anti-histone antibody and peroxidase-conjugated anti-DNA antibody on streptavidin-coated microtiter plates for 2 hr at room temperature. After incubation with ATBS substrate for development of color, absorbance was read on a spectrophotometer at 405 nm against ABTS solution as the blank. For background determination, lysis buffer was used instead of cell lysate.

LNCaP-Rf cells = test: Keratin 18 cleavage, M30 immunostaining; conditions: 25 micro-M, 20 hr, FIG. 2B
Procedure: After incubation, cells were fixed in ice-cold methanol at […]. for 30 min and incubated with FITC-conjugated M30 antibody for 60 min at room temperature. Cells were mounted with Vectashield containing DAPI.

cytochrome c = test: Cytochrome c in S100 cytosolic extracts of LNCaP cells, Western blotting; conditions: 25 micro-M, 20 hr, FIG. 3B
Procedure: Cells were washed in ice-cold PBS, resuspended in an isotonic mitochondrial buffer (210 mM mannitol, 70 mM sucrose, 1 mM EDTA, 10 mM Hepes, pH 7.5, and a protease inhibitor cocktail (Sigma)), and homogenized in a Dounce homogenizer. The heavy membrane fraction was removed by two successive centrifugations, the first at 1000 H g for 10 min and the second at 10,000 H g for 10 min. To obtain the […], the supernatant was centrifuged at 100,000 H g for 90 min.

LNCaP cells [2] = test: DNA fragmentation, Cell Death Detection ELISA; conditions: co-treated with 25 micro-M roscovitine, 20 hr, FIG. 3A
Procedure: as §1

Q: `Cc1ccc(C(=O)Cn2c3c(sc2=N)CCCC3)cc1` [pifithrin-α] was tested. Which “PARP cleavage in roscovitine-treated cells” value (LNCaP cells [1]) did it give?
A: substantially reduced

Q: And the “p53 abundance in cells co-treated with roscovitine” value (p53)?
A: did not increase

Q: Which “increase in amounts of fragmented DNA” value (PC3 cells; 25 μM) does the source give for `CC[C@H](CO)Nc1nc(NCc2ccccc2)c2ncn(C(C)C)c2n1` [roscovitine, 6-benzylamino-2-[(R)-1-ethyl-2-hydroxye-thylamino]-9-isopropylpurine] here?
A: 8 fold

Q: What about the “increase in amounts of fragmented DNA” value (PC3 cells; 50 μM) of the same compound?
A: 3 fold

Q: What about the “keratin 18 cleavage” value (LNCaP-Rf cells) of the same compound?
A: keratin 18 cleavage

Q: What about the “cytochrome c in the cytosol” value (cytochrome c) of the same compound?
A: present

Q: Which “roscovitine-induced apoptosis (DNA fragmentation) in presence of caspase inhibitor” value (LNCaP cells [2]) does the source give for z-DEVD-fmk here?
A: did not induce apoptosis

Q: z-LEHD-fmk was tested. Which “roscovitine-induced apoptosis (DNA fragmentation) in presence of caspase inhibitor” value (LNCaP cells [2]) did it give?
A: did not induce apoptosis
